Assay results published in ChEMBL document CHEMBL3994677, “Discovery of GSK2193874: An Orally Active, Potent, and Selective Blocker of Transient Receptor Potential Vanilloid 4” (ACS Med Chem Lett, 2017).

Columns and labels:
[1] = molecular target: T1, Transient receptor potential cation channel subfamily V member 4 (Homo sapiens, UniProt Q9HBA0); assay: Antagonist activity at human TRPV4 expressed in HEK293 cells assessed as inhibition of GSK634775A-induced calcium influx preincubated for 10 mins followed by GSK634775A addition by […] dye based FLIPR assay; type: cell-based
[2] = molecular target: T2, Transient receptor potential cation channel subfamily V member 4 (Rattus norvegicus, UniProt Q9ERZ8); assay: Antagonist activity at rat TRPV4 expressed in HEK293 cells assessed as inhibition of GSK634775A-induced calcium influx preincubated for 10 mins followed by GSK634775A addition by […] dye based FLIPR assay; type: cell-based
[3] = molecular target: T3, Transient receptor potential cation channel subfamily V member 4 (Mus musculus, UniProt Q9EPK8); assay: Antagonist activity at mouse TRPV4 expressed in HEK293 cells assessed as inhibition of 4alpha-PDD-induced intracellular calcium after 10 mins in presence of 45Ca2+ by microbeta liquid scintillation counting method; type: cell-based
[4] = molecular target: T2, Transient receptor potential cation channel subfamily V member 4; assay: Antagonist activity at rat TRPV4 expressed in HEK293 cells assessed as inhibition of 4alpha-PDD-induced intracellular calcium after 10 mins in presence of 45Ca2+ by microbeta liquid scintillation counting method; type: cell-based
[5] = molecular target: T4, Voltage-dependent L-type calcium channel subunit alpha-1C (Cavia porcellus, UniProt O35505); assay: Inhibition of Cav1.2 in guinea pig ventricular myocytes assessed as decrease in current amplitude at 2 Hz by patch clamp method; type: cell-based
[6] = molecular target: T4, Voltage-dependent L-type calcium channel subunit alpha-1C; assay: Inhibition of Cav1.2 in guinea pig ventricular myocytes assessed as decrease in current amplitude at 0.1 Hz by patch clamp method; type: cell-based
[7] = molecular target: Nuclear receptor subfamily 1 group I member 2 (Homo sapiens, UniProt O75469); assay: Activation of PXR (unknown origin); type: ADME
[8] = molecular target: T2, Transient receptor potential cation channel subfamily V member 4; assay: Antagonist activity at rat TRPV4 expressed in HEK293 cells assessed as inhibition of 4alpha-PDD-induced current at holding potential of -40 mV by Whole cell patch-clamp method; type: cell-based
[9] = molecular target: T3, Transient receptor potential cation channel subfamily V member 4; assay: Antagonist activity at mouse TRPV4 expressed in HEK293 cells assessed as inhibition of 4alpha-PDD-induced current at holding potential of -40 mV by Whole cell patch-clamp method; type: cell-based
[10] = molecular target: T1, Transient receptor potential cation channel subfamily V member 4
Description: Antagonist activity at human TRPV4 expressed in HEK293 cells assessed as inhibition of 4alpha-PDD-induced current at holding potential of -40 mV by Whole cell patch-clamp method

[11] = molecular target: Substance-K receptor (Homo sapiens, UniProt P21452); assay: Inhibition of NK2 receptor (unknown origin) by FLIPR assay
[12] = Clearance in Sprague-Dawley rat; type: ADME; conditions: in vivo
[13] = molecular target: Neuromedin-K receptor (Homo sapiens, UniProt P29371); assay: Inhibition of NK3 receptor (unknown origin) by FLIPR assay

T2 sequence (Q9ERZ8 whole entry): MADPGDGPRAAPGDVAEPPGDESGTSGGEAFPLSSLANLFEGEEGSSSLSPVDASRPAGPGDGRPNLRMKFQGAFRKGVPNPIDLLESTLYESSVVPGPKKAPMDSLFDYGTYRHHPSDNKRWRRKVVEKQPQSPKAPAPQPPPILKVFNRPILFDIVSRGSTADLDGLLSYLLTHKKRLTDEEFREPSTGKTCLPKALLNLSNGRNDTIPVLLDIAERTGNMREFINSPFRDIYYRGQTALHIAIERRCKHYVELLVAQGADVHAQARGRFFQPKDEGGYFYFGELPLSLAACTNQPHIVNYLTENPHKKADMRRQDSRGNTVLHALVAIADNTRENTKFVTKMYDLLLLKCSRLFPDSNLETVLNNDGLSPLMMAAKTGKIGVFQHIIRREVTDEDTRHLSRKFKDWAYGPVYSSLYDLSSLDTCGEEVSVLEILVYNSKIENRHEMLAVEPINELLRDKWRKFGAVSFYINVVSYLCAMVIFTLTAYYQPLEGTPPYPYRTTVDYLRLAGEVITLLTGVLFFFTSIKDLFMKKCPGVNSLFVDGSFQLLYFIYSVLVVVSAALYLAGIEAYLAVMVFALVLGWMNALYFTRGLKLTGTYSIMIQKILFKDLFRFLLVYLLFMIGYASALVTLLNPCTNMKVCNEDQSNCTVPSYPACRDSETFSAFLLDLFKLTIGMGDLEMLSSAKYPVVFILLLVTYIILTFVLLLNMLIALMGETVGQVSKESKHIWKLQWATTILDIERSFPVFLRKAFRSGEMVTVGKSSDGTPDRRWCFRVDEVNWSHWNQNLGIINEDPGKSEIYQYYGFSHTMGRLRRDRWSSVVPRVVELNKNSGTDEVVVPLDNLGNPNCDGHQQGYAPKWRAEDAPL
T1 sequence (Q9HBA0 whole entry): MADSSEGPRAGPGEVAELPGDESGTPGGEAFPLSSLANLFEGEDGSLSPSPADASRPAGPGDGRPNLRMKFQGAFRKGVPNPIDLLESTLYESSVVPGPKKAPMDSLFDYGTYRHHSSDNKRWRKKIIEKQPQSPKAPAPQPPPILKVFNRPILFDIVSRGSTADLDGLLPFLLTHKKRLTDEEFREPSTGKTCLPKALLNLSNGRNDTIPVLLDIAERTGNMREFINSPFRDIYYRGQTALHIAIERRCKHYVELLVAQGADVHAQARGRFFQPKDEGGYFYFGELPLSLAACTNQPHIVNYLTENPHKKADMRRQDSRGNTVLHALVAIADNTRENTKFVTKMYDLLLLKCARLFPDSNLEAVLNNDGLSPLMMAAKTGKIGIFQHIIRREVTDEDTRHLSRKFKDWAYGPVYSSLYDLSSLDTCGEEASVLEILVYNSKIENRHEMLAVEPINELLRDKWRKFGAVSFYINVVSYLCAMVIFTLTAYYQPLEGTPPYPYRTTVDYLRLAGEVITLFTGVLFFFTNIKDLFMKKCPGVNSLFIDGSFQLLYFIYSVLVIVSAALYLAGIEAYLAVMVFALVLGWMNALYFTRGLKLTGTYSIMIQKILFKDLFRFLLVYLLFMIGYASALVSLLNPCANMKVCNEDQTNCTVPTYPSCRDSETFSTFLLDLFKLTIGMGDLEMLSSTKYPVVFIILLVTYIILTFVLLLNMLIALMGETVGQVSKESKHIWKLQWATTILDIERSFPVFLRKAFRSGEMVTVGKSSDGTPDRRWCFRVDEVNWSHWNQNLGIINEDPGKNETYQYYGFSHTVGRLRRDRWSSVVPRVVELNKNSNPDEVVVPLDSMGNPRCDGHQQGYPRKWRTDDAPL
T4 sequence (O35505 whole entry): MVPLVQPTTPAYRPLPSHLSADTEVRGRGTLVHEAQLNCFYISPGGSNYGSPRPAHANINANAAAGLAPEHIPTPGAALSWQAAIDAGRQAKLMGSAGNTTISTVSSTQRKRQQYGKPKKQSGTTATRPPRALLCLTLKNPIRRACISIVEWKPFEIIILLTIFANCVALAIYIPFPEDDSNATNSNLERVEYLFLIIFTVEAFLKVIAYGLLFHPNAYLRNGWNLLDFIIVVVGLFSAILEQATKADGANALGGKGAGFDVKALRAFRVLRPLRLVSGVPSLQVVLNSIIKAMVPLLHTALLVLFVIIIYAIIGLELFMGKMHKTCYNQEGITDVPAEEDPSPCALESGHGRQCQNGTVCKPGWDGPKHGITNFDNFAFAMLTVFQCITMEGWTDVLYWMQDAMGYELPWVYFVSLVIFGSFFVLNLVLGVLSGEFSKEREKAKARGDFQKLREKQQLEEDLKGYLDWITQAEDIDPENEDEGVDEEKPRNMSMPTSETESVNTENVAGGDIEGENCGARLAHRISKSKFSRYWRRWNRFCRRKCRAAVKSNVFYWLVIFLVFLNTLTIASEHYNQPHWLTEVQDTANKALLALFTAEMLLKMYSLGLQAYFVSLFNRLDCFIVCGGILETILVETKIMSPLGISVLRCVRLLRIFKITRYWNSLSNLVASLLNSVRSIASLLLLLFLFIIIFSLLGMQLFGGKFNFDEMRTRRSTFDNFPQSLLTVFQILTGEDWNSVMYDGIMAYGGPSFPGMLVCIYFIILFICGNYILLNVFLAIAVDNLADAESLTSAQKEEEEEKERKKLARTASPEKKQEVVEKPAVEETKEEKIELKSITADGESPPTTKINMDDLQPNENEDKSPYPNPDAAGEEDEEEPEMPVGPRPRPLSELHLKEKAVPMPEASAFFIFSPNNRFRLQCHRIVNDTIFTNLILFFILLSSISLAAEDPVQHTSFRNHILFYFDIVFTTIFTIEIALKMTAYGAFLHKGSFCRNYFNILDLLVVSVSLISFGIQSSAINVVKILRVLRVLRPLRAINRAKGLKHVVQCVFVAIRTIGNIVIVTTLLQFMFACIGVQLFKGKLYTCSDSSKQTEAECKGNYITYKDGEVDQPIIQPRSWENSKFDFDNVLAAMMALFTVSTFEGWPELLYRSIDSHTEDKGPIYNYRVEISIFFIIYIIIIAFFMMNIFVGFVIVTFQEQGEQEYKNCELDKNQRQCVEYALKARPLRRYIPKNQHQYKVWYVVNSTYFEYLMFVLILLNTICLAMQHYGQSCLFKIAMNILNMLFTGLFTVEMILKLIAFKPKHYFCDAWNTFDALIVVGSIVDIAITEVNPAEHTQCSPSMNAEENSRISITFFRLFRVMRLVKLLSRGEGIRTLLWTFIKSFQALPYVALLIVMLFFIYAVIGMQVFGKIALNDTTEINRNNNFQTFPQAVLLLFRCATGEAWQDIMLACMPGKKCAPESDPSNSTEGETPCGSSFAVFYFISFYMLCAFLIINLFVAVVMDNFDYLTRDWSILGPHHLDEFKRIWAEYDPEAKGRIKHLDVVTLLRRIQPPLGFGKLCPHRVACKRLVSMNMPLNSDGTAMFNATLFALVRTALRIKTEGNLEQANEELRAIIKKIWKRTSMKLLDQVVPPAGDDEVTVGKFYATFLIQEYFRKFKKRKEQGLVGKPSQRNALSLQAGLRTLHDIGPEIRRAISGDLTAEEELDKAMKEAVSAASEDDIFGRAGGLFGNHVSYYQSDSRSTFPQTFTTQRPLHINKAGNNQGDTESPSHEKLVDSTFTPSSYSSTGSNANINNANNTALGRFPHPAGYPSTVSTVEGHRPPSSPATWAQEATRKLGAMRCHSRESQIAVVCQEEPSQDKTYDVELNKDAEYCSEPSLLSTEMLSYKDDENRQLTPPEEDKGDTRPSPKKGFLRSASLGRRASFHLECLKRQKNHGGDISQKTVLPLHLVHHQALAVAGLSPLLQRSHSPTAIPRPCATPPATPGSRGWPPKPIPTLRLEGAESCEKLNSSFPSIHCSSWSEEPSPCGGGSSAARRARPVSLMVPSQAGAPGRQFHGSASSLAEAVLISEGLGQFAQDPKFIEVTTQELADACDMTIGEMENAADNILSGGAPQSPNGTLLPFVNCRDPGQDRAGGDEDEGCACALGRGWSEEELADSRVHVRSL
T3 sequence (Q9EPK8 whole entry): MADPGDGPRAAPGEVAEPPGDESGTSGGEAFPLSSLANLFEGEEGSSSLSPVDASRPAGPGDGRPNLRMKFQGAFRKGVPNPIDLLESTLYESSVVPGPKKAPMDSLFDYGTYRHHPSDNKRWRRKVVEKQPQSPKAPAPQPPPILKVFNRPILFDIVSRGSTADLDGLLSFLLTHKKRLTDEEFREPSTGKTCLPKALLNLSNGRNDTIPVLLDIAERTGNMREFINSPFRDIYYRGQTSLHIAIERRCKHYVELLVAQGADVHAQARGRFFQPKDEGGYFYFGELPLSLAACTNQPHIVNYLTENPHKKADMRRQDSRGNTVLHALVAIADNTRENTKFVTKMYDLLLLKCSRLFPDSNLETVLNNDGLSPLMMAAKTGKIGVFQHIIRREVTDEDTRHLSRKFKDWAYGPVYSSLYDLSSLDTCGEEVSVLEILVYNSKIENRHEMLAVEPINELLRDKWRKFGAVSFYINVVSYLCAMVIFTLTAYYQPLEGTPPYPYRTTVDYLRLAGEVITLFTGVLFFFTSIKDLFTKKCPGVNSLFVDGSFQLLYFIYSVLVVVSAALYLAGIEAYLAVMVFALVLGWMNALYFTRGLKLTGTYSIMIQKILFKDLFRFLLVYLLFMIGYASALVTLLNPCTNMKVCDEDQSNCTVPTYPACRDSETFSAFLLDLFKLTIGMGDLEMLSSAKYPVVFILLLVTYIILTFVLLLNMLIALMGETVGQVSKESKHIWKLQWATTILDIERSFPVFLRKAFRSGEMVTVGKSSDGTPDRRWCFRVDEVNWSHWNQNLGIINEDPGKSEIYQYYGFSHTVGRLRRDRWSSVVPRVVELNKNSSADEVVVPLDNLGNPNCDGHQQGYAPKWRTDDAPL

Question: With `C[C@H](NC(=O)c1c(CN2CCCCC2)c(-c2cccc(C(F)(F)F)c2)nc2ccccc12)c1ccccc1` as the compound, how does the IC50 [1] read?
Answer: The IC50 was greater than 25000 nM.

Question: What about the IC50 [2] of the same compound?
Answer: The IC50 was greater than 25000 nM.

Question: With `C[C@H](NC(=O)c1c(CN2CCC(N3CCNCC3)CC2)c(-c2cccc(C(F)(F)F)c2)nc2ccccc12)c1ccccc1` as the compound, how does the IC50 [1] read?
Answer: Its IC50 is 3160 nM.

Question: And the IC50 [2]?
Answer: The IC50 was 790 nM.

Question: Which results are given for `Cc1ccc(-c2nc3ccccc3c(C(=O)N[C@@H](C)c3ccccc3)c2CN2CCC(N3CCCCC3)CC2)cc1`?
Answer: IC50 [1]: 1580 nM; IC50 [2]: 100 nM

Question: What does the source list for `C[C@@H](NC(=O)c1c(CN2CCC(N3CCCCC3)CC2)c(-c2cccc(C(F)(F)F)c2)nc2ccccc12)c1ccccc1`?
Answer: IC50 [1]: 2000 nM; IC50 [2]: 400 nM

Question: For `CCOc1ccc2c(C(=O)NC3(c4ccccc4)CC3)c(CN3CCC(N4CCCCC4)CC3)c(-c3cccc(C(F)(F)F)c3)nc2c1`, which IC50 [1] is on record?
Answer: The IC50 was 80 nM.

Question: And the IC50 [2]?
Answer: The IC50 was 1.6 nM.

Question: Which results are given for `CC(C)NCCN(C(C)C)S(=O)(=O)c1ccc(Cl)cc1Cl`?
Answer: IC50 [3]: 5900 nM; IC50 [4]: 3200 nM

Question: With `C[C@H](NC(=O)c1c(CN2CCC(N3CCCCC3)CC2)c(-c2ccc(Cl)cc2)nc2ccccc12)c1ccccc1` as the compound, how does the IC50 [1] read?
Answer: Its IC50 is 320 nM.

Question: What about the IC50 [2] of the same compound?
Answer: Its IC50 is 16 nM.

Question: Which IC50 [1] does the source give for `C[C@@H](NC(=O)c1c(CN2CCC(N3CCCCC3)CC2)c(-c2ccccc2)nc2ccccc12)c1ccccc1` here?
Answer: The IC50 was 2000 nM.

Question: And the IC50 [2]?
Answer: Its IC50 is 630 nM.

Question: Which IC30 [5] does the source give for `CCOc1ccc2c(C(=O)N[C@H](c3ccccc3)C(F)(F)F)c(CN3CCC(N4CCCCC4)CC3)c(-c3cccc(C(F)(F)F)c3)nc2c1` here?
Answer: The IC30 was 12000 nM.

Question: And the IC50 [1]?
Answer: The IC50 was 10 nM.

Question: And the IC50 [2]?
Answer: Its IC50 is 3.2 nM.

Question: And the IC30 [6]?
Answer: The IC30 was 10000 nM.

Question: And the EC50 [7]?
Answer: Its EC50 is 1300 nM.

Question: Which IC50 [1] does the source give for `O=C(N[C@H](c1ccccc1)C(F)(F)F)c1c(CN2CCC(N3CCCCC3)CC2)c(-c2cccc(C(F)(F)F)c2)nc2cc(Br)ccc12` here?
Answer: Its IC50 is 60 nM.

Question: What about the IC50 [2] of the same compound?
Answer: Its IC50 is 3.2 nM.

Question: Which IC50 [1] does the source give for `C[C@H](NC(=O)c1c(CN2CCC(N3CCOCC3)CC2)c(-c2cccc(C(F)(F)F)c2)nc2ccccc12)c1ccccc1` here?
Answer: Its IC50 is 50 nM.

Question: What about the IC50 [2] of the same compound?
Answer: The IC50 was 4 nM.

Question: With `CC[C@H](NC(=O)c1c(CN2CCC(N3CCCCC3)CC2)c(-c2cccc(C(F)(F)F)c2)nc2ccccc12)c1ccccc1` as the compound, how does the IC50 [1] read?
Answer: Its IC50 is 160 nM.

Question: What about the IC50 [2] of the same compound?
Answer: Its IC50 is 6 nM.

Question: Which results are given for `Cc1c(C(=O)Nc2cccc(C(F)(F)F)c2)cc(-c2ccccc2)n1CCCN1CCOCC1`?
Answer: IC50 [8]: 133 nM; IC50 [9]: 17 nM; IC50 [10]: 48 nM

Question: For `O=C(N[C@H](c1ccccc1)C(F)(F)F)c1c(CN2CCC(N3CCCCC3)CC2)c(-c2cccc(C(F)(F)F)c2)nc2ccccc12`, which IC50 [1] is on record?
Answer: The IC50 was 40 nM.

Question: And the IC50 [2]?
Answer: The IC50 was 2.5 nM.

Question: Which IC50 [11] does the source give for `C[C@H](NC(=O)c1c(CN2CCC(N3CCCCC3)CC2)c(-c2ccccc2)nc2ccccc12)c1ccccc1` here?
Answer: The IC50 was 100 nM.

Question: And the IC50 [1]?
Answer: Its IC50 is 2000 nM.

Question: And the IC50 [2]?
Answer: The IC50 was 320 nM.

Question: And the clearance [12]?
Answer: Its clearance is 52 mL/min/kg.

Question: What about the IC50 [13] of the same compound?
Answer: The IC50 was 8 nM.

Question: Which IC50 [1] does the source give for `CC(C)(NC(=O)c1c(CN2CCC(N3CCCCC3)CC2)c(-c2cccc(C(F)(F)F)c2)nc2ccccc12)c1ccccc1` here?
Answer: The IC50 was 1000 nM.

Question: What about the IC50 [2] of the same compound?
Answer: The IC50 was 40 nM.
